The values below come from US9373800B2, “Organic light emitting element having lithium—boron complex” (CANON KABUSHIKI KAISHA, priority 2014, dated 2016).

This series can be described thus: Evaluation of stability to water (100 nm deposited film, water dropped, thickness step height meter). In kind it is physicochemical. As to conditions: for State of the film after water was dropped, After 1 min / State of the film after water was dropped, After 10 min: 100 nm film deposited on glass substrate, water dropped onto film, Alpha-Step; for State of the film after water was dropped, After 1 min: after 1 minute; for Dissolution of the film in water (text summary of Table 1): film soaked in water. Here is the method: Water was dropped onto the films, and the states of the films were examined after 1 minute and 10 minutes with a thickness step height meter (Alpha-Step).

Turning to `[F-].[Li+]` [Comparative compound 1, lithium fluoride], the “State of the film after water was dropped, After 1 min” value (from here on “State of the film … After 1 min”) is on record as “Dissolved”; the “State of the film after water was dropped, After 10 min” value (from here on “State of the film … After 10 min”) was “Dissolved”; the “Dissolution of the film in water (text summary of Table 1)” value (shortened to “Dissolution of the film in water”) was “dissolved immediately”.
For `[Cs+].[F-]` [Comparative compound 2, cesium fluoride], the “State of the film … After 1 min” value was “Dissolved”; the “State of the film … After 10 min” value is “Dissolved”; the “Dissolution of the film in water” value was “dissolved immediately”.
For `[Li+].c1cnn([B-](n2cccn2)(n2cccn2)n2cccn2)c1` [Comparative compound 3], the “State of the film … After 1 min” value is reported as “Partially dissolved”; the “State of the film … After 10 min” value is reported as “Dissolved”; the “Dissolution of the film in water” value was “gradually dissolved”.
